Experimental findings from patent US20240182456A1, “2-((4-((S)-2-(4-CHLORO-2-FLUOROPHENYL)-2-METHYLBENZO[D][1,3]DIOXOL-4-YL)PIPERIDIN-1-YL)METHYL)-1-(((S)-OXETAN-2-YL)METHYL)-1H-IMIDAZOLE DERIVATIVES AS ACTIVATORS OF THE GLP1 RECEPTOR FOR THE TREATMENT OF OBESITY” (Novartis AG, priority 2021, published 2024) are described below.

One data set concerns the target human GLP1R (hGLP1R) (Homo sapiens, UniProt P43220). Put plainly: Human GLP1R cAMP agonist assay (GloSensor). The data set is classed as cell-based. As to conditions: HEK293-SNAP-hGLP1R-GloSensor cells; for Emax: read-out: Emax mean; for EC50: intracellular cAMP, mean n=3 where SEM is given. As for the experimental part: Compounds 1 to 31 were tested in the following cellular assays that measure the intracellular cAMP concentration, beta-arrestin recruitment and receptor internalization. The cAMP is generated by the activation of GLP1R. The cAMP data obtained is shown in Table 1 (where S.E.M. is included, mean n=3 independent experiments+/−S.E.M). Beta-arrestin is recruited upon activation of GLP1R and the data obtained are shown in Table 2 (mean n=2 independent experiments, +/−S.D). The extent to which the GLP1R is internalized into the cell and away from the plasma membrane following activation is also shown in Table 2 (mean n=2 independent experiments, +/−S.D). EC50 for each assay is defined as the concentration of the compound that leads to half of the maximum response (after baseline correction). Emax is defined as the maximum response observed for the test compound, normalized to the maximum response observed for the endogenous ligand (GLP1(7-36)) to GLP1R.
Human GLP1R cAMP Agonist Assay
The agonist activity of compounds was determined using the GloSensor™ cAMP Assay (Promega Corp.), which measures changes in the intracellular concentration of cAMP after ligand activation of GPCRs. The assay uses a biosensor encoded by pGloSensor™-22F cAMP plasmid (Promega, cat #E2301) with cAMP binding domains fused to a mutant form of Photinus pyralis luciferase. Binding to cAMP causes conformational changes that promote large increases in light output, which can be measured by a luminescence detector. HEK293-SNAP-hGLP1R-GloSensor cells stably overexpressing the human GLP1 receptor (hGLP1R) and pGloSensor™-22F were seeded in white 384-well poly-D-Lysine coated plates (Greiner Bio One, cat #781945) in CO2-independent media (Gibco cat #18045-088 with 1.0% FBS, 2 mM L-glutamine, penicillin and streptomycin) and incubated overnight at 37° C., 5% CO2 with humidity. The assay was started the following morning by adding an equal volume of CO2-independent media containing 4% v/v dilution of the GloSensor substrate (Promega, cat #E1291) to all wells. The cell plate was incubated at rt for 2 h in the dark. The Biomek 7 (Beckman Coulter) instrument was used for the liquid handling steps. To generate duplicate dose response curves, 3-fold serially diluted compounds were added in to the cell assay plate to a final volume of 60 μL with final concentrations ranging from 30 μM through 0.06 μM in CO2-independent media containing 0.1% BSA, 0.5 mM IBMX and 0.4% DMSO. In the same plate and assay buffer as the tested compounds, were EC100 control wells containing GLP1 (7-36) peptide (Bachem, cat #H-6795) at a final concentration of 2 nM and also EC0 control wells containing no peptide. This plate was incubated at rt in the dark for 12 min after adding the compounds to the cells. Luminescence was then measured with an Envision 2104 Multilabel reader with “TRF Light Unit, 337 nm” (PerkinElmer) using the Ultra-Sensitive protocol setting “384-well US luminescence detector” with the 384-well luminescence aperture, 0.1 seconds per well. cAMP activity was calculated as percent of the GLP1 (7-36) EC100 control wells: [(sample signal−mean EC0 signal)/(mean EC100 of GLP1 (7-36) signal−mean EC0 signal)}*100. Curve fitting for EC50 determinations was performed in the Helios module of the software package DAVID. The 4-parameter logistic model, Hill slope was used: y=Ainf+(A0−Ainf)/(1+(x/AC50)^Hill Slope) where y is the functional response; x is the compound concentration; A0 is the minimum value (at 0 dose); Ainf is the maximum value (at infinite dose); AC50 corresponds to the point of inflection (i.e. the point on the sigmoid shaped curve halfway between A0 and Ainf). The EC50 value was represented by the AC50 value calculated from Helios in μM. Emax is the maximal activity detected within the concentration range, derived from the fitted curve. […]

Data set [1] is described as follows: Pharmacokinetics in C57BL/6 mice (i.v. and oral). To be noted: for BAV: male C57BL/6 mice, 3 mg/kg oral dose vs 1 mg/kg i.v.; for AUC(0-inf) / Vd / clearance / half-life / Cmax / Tmax: male, C57BL/6, mouse. How it is done: Blood concentration versus time profiles were obtained from 2 groups of 3 male mice. The compound was administered intravenously (i.v.) by bolus injection (5 mL/kg) at a dose of 1 mg/kg in N-methyl-2-pyrrolidone (10%) and 4% bovine serum albumins (BSA) in phosphate-buffered saline (PBS) (90%) or orally administered at a dose of 3 mg/kg (10 mL/kg) as a homogenous suspension of Water (99.4%), Tween 80 (0.1%) and methylcellulose (0.5%). Following compound administration, blood (10 μL/time point) were collected by puncture of the tail vein into ethylenediaminetetraacetic (EDTA)-coated tubes, at 0.083 (i.v. only), 0.25, 0.5, 1, 3, 7, & 24 hours post dose.
Bioanalysis: An aliquot of 10 μL of blood sample and matrix calibration standards were added to a 96-well plate. The samples were extracted using a protein precipitation procedure with addition of 80 μL acetonitrile containing internal standard. The samples were vortexed and centrifuged at 3000 rpm for 5 minutes. A 70 μL aliquot of supernatant was transferred to a clean 96-well plate and a 70 μL of water was added to each well and vortexed. Samples were analyzed and quantified by LC-MS/MS using the conditions outlined below.
• Mass Spectrometer: AP16500+ • Liquid Chromatograph: Agilent 1290 for Compound 3; Shimadzu LC30 AD for Compound 5 • Autosampler (ALS): Agilent 1290 for Compound 3; Shimadzu SIL30AC for Compound 5
• LC Column Acquity BEH C18, 50×2.1 mm, 1.7 μm • Solvent A: • 5:95:0.1 (v:v:v) Acetonitrile:Water:Formic Acid for Compound 3 • 100:0.1 (v:v) Water:Formic acid for Compound 5 • Solvent B: • 50:50:0.1 (v:v:v) Acetonitrile:Methanol:Formic Acid for Compound 3 • 100:0.1 (v:v) Acetonitrile:Formic acid for Compound 5 • Injection Volume [μL]: 1 for Compound 5; 20 for Compound 3 • Column Oven Temp. [° C.]: 50 Compound 3; 40 for Compound 5 • ALS Temp. [° C.]: 5
• Ion Source: TIS • Polarity: Positive • Temperature: 550 • Gas 1: 55 • Gas 2: 55 • Curtain Gas: 20 • Ion Spray Voltage [V]: 5500 for Compound 5; 4500 for Compound 3 • CAD Gas: 9

The mark [2] stands for this setting: cAMP, normalized to GLP1(7-36) maximum response.

Sequence of human GLP1R (hGLP1R) (P43220 24-463): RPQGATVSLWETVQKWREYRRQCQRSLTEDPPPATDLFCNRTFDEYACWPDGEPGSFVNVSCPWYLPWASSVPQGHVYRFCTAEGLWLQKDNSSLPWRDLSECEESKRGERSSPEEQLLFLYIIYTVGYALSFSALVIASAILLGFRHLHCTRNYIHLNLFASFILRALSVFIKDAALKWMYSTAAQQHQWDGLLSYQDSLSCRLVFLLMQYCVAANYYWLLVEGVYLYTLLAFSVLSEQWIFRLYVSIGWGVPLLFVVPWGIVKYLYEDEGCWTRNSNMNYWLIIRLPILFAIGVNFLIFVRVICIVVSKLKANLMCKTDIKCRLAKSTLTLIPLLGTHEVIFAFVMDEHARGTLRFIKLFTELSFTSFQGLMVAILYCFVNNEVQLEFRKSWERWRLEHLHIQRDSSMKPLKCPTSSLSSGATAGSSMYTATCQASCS

For the compound `C[C@]1(c2ccc(Cl)cc2F)Oc2cccc(C3CCN(Cc4nc(-c5nnn[nH]5)c(C(F)(F)F)n4C[C@@H]4CCO4)CC3)c2O1` [Compound C-25, 4-((S)-2-(4-chloro-2-fluorophenyl)-2-methylbenzo[d][1,3]dioxol-4-yl)-1-((1-(((S)-oxetan-2-yl)methyl)-4-(1H-tetrazol-5-yl)-5-(trifluoromethyl)-1H-imidazol-2-yl)methyl)piperidine], the Emax at human GLP1R (hGLP1R) (setting [2]) amounted to 110%. Also, the 50% effective concentration (EC50) at human GLP1R (hGLP1R) was found to be 8.63 nM.
In data set [1], `C[C@]1(c2ccc(Cl)cc2F)Oc2cccc(C3CCN(Cc4nc(C(F)(F)F)c(/C=C/C(=O)O)n4C[C@@H]4CCO4)CC3)c2O1` [Compound 8] came in with a BAV of 60.9 ± 5.26%. Moreover, in data set [1] (in vivo, iv, 1 mg/kg), the AUC(0-inf) amounted to 3.75 ± 0.149 µM·h, the Vd amounted to 1.65 ± 0.025 L/kg, the clearance stood at 7 ± 0.283 mL/min/kg and the half-life was 181 ± 10.1 min. In addition, in data set [1] (in vivo, po, 3 mg/kg), the AUC(0-inf) worked out at 6.86 ± 0.591 µM·h, the highest concentration (Cmax) amounted to 768 ± 112 nM, the Tmax came out at 1 h and the half-life is 162 ± 12.1 min.
As to `Cc1nc(CN2CCC(c3cccc4c3O[C@@](C)(c3ccc(Cl)cc3F)O4)CC2)n(C[C@@H]2CCO2)c1C1CC1C(=O)O` (some centres unmarked) [Compound C-9], the Emax at human GLP1R (hGLP1R) (setting [2]) is 109%. A half-maximal effect on human GLP1R (hGLP1R) (EC50) was put at 0.418 nM.
In the same order, the values of `CC(Cc1cnc(CN2CCC(c3cccc4c3O[C@@](C)(c3ccc(Cl)cc3F)O4)CC2)n1C[C@@H]1CCO1)C(=O)O` (single isomer, unassigned) [Compound C-17a] are 104% and 1.2 nM.
As to `Cc1nc(CN2CCC(c3cccc4c3O[C@@](C)(c3ccc(Cl)cc3F)O4)CC2)n(C[C@@H]2CCO2)c1C(O)CC(=O)O` (mixture of isomers) [Compound C-28, 3-(2-((4-((S)-2-(4-chloro-2-fluorophenyl)-2-methylbenzo[d][1,3]dioxol-4-yl)piperidin-1-yl)methyl)-4-methyl-1-(((S)-oxetan-2-yl)methyl)-1H-imidazol-5-yl)-3-hydroxypropanoic acid], the maximum response (Emax) at human GLP1R (hGLP1R) (setting [2]) turned out to be 110%. The compound also had an EC50 on human GLP1R (hGLP1R) of 1.08 nM.
Consider `Cc1nc(CN2CCC(c3cccc4c3O[C@@](C)(c3ccc(Cl)cc3F)O4)CC2)n(C[C@@H]2CCO2)c1/C=C/C(=O)O` [Compound 5], for which, in data set [1] (whole blood, iv, 1 mg/kg), the AUC(0-inf) was found to be 5.02 ± 0.629 µM·h, the Vd was 0.604 ± 0.02 L/kg, the clearance came to 5.76 ± 0.711 mL/min/kg and the half-life was 85.2 ± 7.26 min. In data set [1] (whole blood, po, 3 mg/kg), the AUC(0-inf) is 7.91 ± 0.764 µM·h, the peak concentration (Cmax) was determined as 1060 ± 450 nM, the time to peak (Tmax) came to 1 h and the half-life was 169 ± 44.4 min.
For the compound `CCc1nc(CN2CCC(c3cccc4c3O[C@@](C)(c3ccc(Cl)cc3F)O4)CC2)n(C[C@@H]2CCO2)c1C(=O)O` [Compound C-27, 2-((4-((S)-2-(4-chloro-2-fluorophenyl)-2-methylbenzo[d][1,3]dioxol-4-yl)piperidin-1-yl)methyl)-4-ethyl-1-(((S)-oxetan-2-yl)methyl)-1H-imidazole-5-carboxylic acid], the Emax at human GLP1R (hGLP1R) (setting [2]) came to 113%. Besides, the midpoint of the response on human GLP1R (hGLP1R), the EC50, lay at 2.96 nM.
In the same order, the values of `C[C@]1(c2ccc(Cl)cc2F)Oc2cccc(C3CCN(Cc4nc(-c5ccc(F)cc5)c(C#CC(=O)O)n4C[C@@H]4CCO4)CC3)c2O1` [Compound C-29, 3-(2-((4-((S)-2-(4-chloro-2-fluorophenyl)-2-methylbenzo[d][1,3]dioxol-4-yl)piperidin-1-yl)methyl)-4-(4-fluorophenyl)-1-(((S)-oxetan-2-yl)methyl)-1H-imidazol-5-yl)propiolic acid] are 104% and 0.0473 nM.
The compound `Cc1nc(CN2CCC(c3cccc4c3O[C@@](C)(c3ccc(Cl)cc3F)O4)CC2)n(C[C@@H]2CCO2)c1C(=O)O` [Compound 3] showed a BAV in data set [1] of 50.1 ± 19.4%. For the same compound, in data set [1] (in vivo, iv, 1 mg/kg), the total exposure AUC(0-inf) was 2.79 ± 1.35 µM·h, the Vd was determined as 0.903 ± 0.282 L/kg, the clearance came out at 12.3 ± 4.78 mL/min/kg and the half-life was 76.8 ± 13.4 min. In addition, in data set [1] (in vivo, po, 3 mg/kg), the AUC(0-inf) was found to be 3.74 ± 0.641 µM·h, the concentration peaked (Cmax) at 1470 ± 354 nM, the Tmax was 0.667 ± 0.289 h and the half-life is 110 ± 48 min.
For `CC(Cc1cnc(CN2CCC(c3cccc4c3O[C@@](C)(c3ccc(Cl)cc3F)O4)CC2)n1C[C@@H]1CCO1)C(=O)O` (single isomer, unassigned) [Compound C-17b], the Emax mean on human GLP1R (hGLP1R) (setting [2]) was 106%. The same compound yielded an EC50 at human GLP1R (hGLP1R) of 1.2 nM.
On to `Cc1c(C(=O)O)nc(CN2CCC(c3cccc4c3O[C@@](C)(c3ccc(Cl)cc3F)O4)CC2)n1C[C@@H]1CCO1` [Compound C-4, 2-((4-((S)-2-(4-chloro-2-fluorophenyl)-2-methylbenzo[d][1,3]dioxol-4-yl)piperidin-1-yl)methyl)-5-methyl-1-(((S)-oxetan-2-yl)methyl)-1H-imidazole-4-carboxylic acid], for which the Emax on human GLP1R (hGLP1R) (setting [2]) is 109%. The compound further returned an EC50 on human GLP1R (hGLP1R) of 8.28 nM.
In the same order, the values of `Cc1nc(CN2CCC(c3cccc4c3O[C@@](C)(c3ccc(Cl)cc3F)O4)CC2)n(C[C@@H]2CCO2)c1C12CC(C(=O)O)(C1)C2` [Compound C-23a, 3-(2-((4-((S)-2-(4-chloro-2-fluorophenyl)-2-methylbenzo[d][1,3]dioxol-4-yl)piperidin-1-yl)methyl)-4-methyl-1-(((S)-oxetan-2-yl)methyl)-1H-imidazol-5-yl)bicyclo[1.1.1]pentane-1-carboxylic acid] are 107% and 1.2 nM.

The Emax is the maximal effect, on the per cent scale that the assay sets. One may read the EC50 as the midpoint of the concentration-response curve. As a reminder, the AUC(0-inf) is total exposure, with the tail of the curve extrapolated. High values mean more exposure, low ones less exposure. The half-life is the time needed for the level to fall by half in the phase considered. A low value points to fast loss. As usually defined, the Cmax is the maximum level reached in the sampled fluid or tissue. The term Tmax denotes the time at which the peak concentration occurs.
